According to ChEMBL document CHEMBL1143350, “Structure and activity of (2,8)-dicarba-(3,12)-cystino alpha-ImI, an alpha-conotoxin containing a nonreducible cystine analogue” (J Med Chem, 2009):
pIC50: −log10 of the molar value. Active and inactive are the calls of the source. The calls are words filed in the database; no cut-off is given here.

Columns and labels:
[1] = (§1) Antagonist activity at nAChR in nicotine-stimulated bovine adrenal chromaffin cells assessed as inhibition of noradrenaline release preincubated for 5 mins before nicotine challenge by RP-HPLC; type: functional; settings: Bos taurus
Bos taurus [2] = organism: Bos taurus; assay: as §1; type: functional
[3] = target: Neuronal acetylcholine receptor subunit alpha-7 (Rattus norvegicus) (UniProt Q05941); assay: Antagonist activity at rat alpha7 nAChR expressed in Xenopus laevis oocytes assessed as inhibition of acetylcholine-evoked ion current at 2.5 uM treated 3 mins prior to acetylcholine challenge measured after 2 to 4 days by two-electrode voltage clamp method; type: functional, cell-based; parameters: scale not given: the % may be the effect or the level left; settings: Oocyte
Chain of Neuronal acetylcholine receptor subunit alpha-7 (Rattus norvegicus) (Q05941 whole entry): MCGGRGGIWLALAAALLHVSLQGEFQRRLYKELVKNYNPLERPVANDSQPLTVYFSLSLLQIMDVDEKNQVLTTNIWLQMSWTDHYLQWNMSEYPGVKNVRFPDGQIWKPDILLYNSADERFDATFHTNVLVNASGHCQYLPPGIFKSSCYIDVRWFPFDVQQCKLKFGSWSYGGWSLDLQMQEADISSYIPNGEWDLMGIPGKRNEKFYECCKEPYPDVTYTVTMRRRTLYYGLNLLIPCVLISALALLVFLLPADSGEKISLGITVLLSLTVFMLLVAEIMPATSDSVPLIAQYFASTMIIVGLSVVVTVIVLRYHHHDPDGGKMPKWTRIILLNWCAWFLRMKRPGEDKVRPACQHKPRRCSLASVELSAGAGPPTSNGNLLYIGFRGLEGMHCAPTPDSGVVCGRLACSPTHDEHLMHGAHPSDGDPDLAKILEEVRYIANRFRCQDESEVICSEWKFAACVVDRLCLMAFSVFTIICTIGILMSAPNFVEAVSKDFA

[4] = (§2) Antagonist activity at nAChR in nicotine-stimulated bovine adrenal chromaffin cells assessed as inhibition of adrenaline release preincubated for 5 mins before nicotine challenge by RP-HPLC; type: functional; settings: Bos taurus
Bos taurus [5] = organism: Bos taurus; assay: as §2; type: functional
[6] = target: Neuronal acetylcholine receptor subunit alpha-7 (Rattus norvegicus) (UniProt Q05941); assay: Activation of rat alpha7 nAChR expressed in Xenopus laevis oocytes at 2.5 uM; type: cell-based; settings: Oocyte

SMILES	pIC50 [1]	Activity (Bos taurus [2])	Activity [3]	pIC50 [4]	Activity (Bos taurus [5])	Activity [6]
C[C@H](NC(=O)[C@H](CS)NC(=O)[C@H](CCCNC(=N)N)NC(=O)[C@@H]1CCCN1C(=O)[C@H](CC(=O)O)NC(=O)[C@H](CO)NC(=O)[C@H](CS)NC(=O)[C@H](CS)NC(=O)CN)C(=O)N[C@@H](Cc1c[nH]c2ccccc12)C(=O)N[C@@H](CCCNC(=N)N)C(=O)N[C@@H](CS)C(N)=O	6.06	Dose-dependent effect	68%	5.95	Dose-dependent effect	inactive
C=CN(CC(=O)NC1C/C=C/CC2NC(=O)[C@H](CCCNC(=N)N)NC(=O)[C@@H]3CCCN3C(=O)[C@H](CC(=O)O)NC(=O)[C@H](CO)NC(=O)[C@H](CSSC[C@@H](C(=O)O)NC(=O)[C@H](CCCNC(=N)N)NC(=O)[C@H](Cc3c[nH]c4ccccc34)NC(=O)[C@H](C)NC2=O)NC1=O)C(=O)CN (single isomer, unassigned)	4.70	Dose-dependent effect	inactive	4.82	Dose-dependent effect	–
C=CN(CC(=O)NC1C/C=C\CC2NC(=O)[C@H](CCCNC(=N)N)NC(=O)[C@@H]3CCCN3C(=O)[C@H](CC(=O)O)NC(=O)[C@H](CO)NC(=O)[C@H](CSSC[C@@H](C(=O)O)NC(=O)[C@H](CCCNC(=N)N)NC(=O)[C@H](Cc3c[nH]c4ccccc34)NC(=O)[C@H](C)NC2=O)NC1=O)C(=O)CN (single isomer, unassigned; isomer I)	4.77	Dose-dependent effect	60%	5.00	Dose-dependent effect	inactive
